Assay results published in patent publication US10254297B2, “Assay for methoxetamine” (Randox Laboratories Ltd, priority 2015, dated 2019).
≈ marks a conversion by molar mass, not a printed value.

System: antibody raised against Immunogen 2 (Example 9), Tracer 1
Experiment: Competitive assay (ELISA) for cross-reactivity measurement
Type: binding, sheep
Conditions: for CCR (competitive cross reactivity): Table 1, antibodies raised against Immunogen 2, Tracer 1, relative to methoxetamine = 100%, summarised from FIGS. 5 to 7; for Antibody binding, in words: Table 1 and FIGS. 5 to 7, antibody of the invention; for IC50 used in % CCR calculation: standard concentration giving 50% inhibition of maximal signal
[1] = FIG. 5 (antibody derived from sheep 1)

| Compound | CCR (competitive cross reactivity) [%] | Antibody binding, in words | IC50 used in % CCR calculation [1] [ng/mL] | % CCR (compared to methoxetamine) (FIG. 5 (antibody derived from sheep 1), IC50 methoxetamine / IC50 analyte x 100) [%] |
| --- | --- | --- | --- | --- |
| CNC1(c2ccccc2Cl)CCCCC1=O (stereo not drawn) [Ketamine] | <5.00 | does not bind | – | – |
| CCNC1(c2cccc(OC)c2)CCCCC1=O (stereo not drawn) [Methoxetamine, 2-(3-methoxyphenyl)-2-(ethylamino)cyclohexanone] | 100.00 | high affinity | 0.47 (≈ 1.9 nM) | – |
| COc1cccc(C2(N)CCCCC2=O)c1 (stereo not drawn) [N-desethylmethoxetamine, 2-amino-2-(3-methoxyphenyl)cyclohexanone] | >5.00 | substantial binding | 1.96 (≈ 8.94 nM) | 24 |
| NC1(c2ccccc2Cl)CCCCC1=O (stereo not drawn) [Norketamine] | <5.00 | – | – | – |
| c1ccc(C2(N3CCCCC3)CCCCC2)cc1 [Phencyclidine] | <5.00 | does not bind | – | – |
| CCOC(=O)C1(c2ccccc2)CCC=CC1N(C)C (stereo not drawn) [Tilidine] | <5.00 | – | – | – |
| COc1cccc(C2(O)CCCCC2CN(C)C)c1 (stereo not drawn) [Tramadol] | <5.00 | does not bind | – | – |
